The source of these data is patent publication US9981071B2, “Drug delivery medical device” (Micell Technologies, Inc., priority 2008, dated 2018).

For data set [1] the following is noted: acid urine; cited from earlier work.
For data set [2], the system named is bladder cancer recurrence. The conditions noted are these: 40 mg/20 cc vs 20 mg/20 cc, dehydration, bladder emptying, alkalinization with sodium bicarbonate; cited from earlier work.
The nature of data set [3]: Bulk drug in arterial tissue surrounding the implanted stent. The class given is in vivo, Yucatan pig. The protocol:
Another sample of the coated stent was prepared for in vivo evaluation in a porcine coronary artery model using the Yucatan pig. Subjects were initially given 650 mg acetylsalicylic acid and 300 mg Plavix. Maintenance doses of 81 mg acetylsalicylic acid and 75 mg Plavix were administered. The target ACT (activated clotting time) for the procedure was about 250 seconds. Stent oversizing in relation to the artery was about 10-20%. The preparation of the sirolimus-coated stent was the same as described in Example 1 and used for the in vitro deployment into tubing, except that the device was sterilized using ETO prior to implantation into the animal.
The bulk concentration of drug was measured in the arterial tissue surrounding the implanted stent at 1, 3, 7, 14, and 28 days after implant, and provided a quantitative measure of the high efficiency of transfer of drug into the therapeutic site using devices and methods of the invention. The amount of drug that was detected in the arterial tissue was as follows: 1 day after implant, ˜6 μg; 3 days after implant, ˜16 μg; 7 days after implant, ˜30 μg; 14 days after implant, ˜30 μg; 28 days after implant, ˜13 μg. Peak tissue concentration of sirolimus of ˜30 μg at 14 days after implant was representative of approximately ⅙ of the total drug that had been loaded on the stent. Note that some drug likely metabolized or diffused out of the arterial tissue into other areas of the body.

On the set-up of data set [4]: dose or concentration left out as unconfirmed. The conditions noted are these: estradiol release, as its 3-acetate ester; cited from earlier work.

As to `CO[C@@]12[C@H](COC(N)=O)C3=C(C(=O)C(C)=C(N)C3=O)N1C[C@@H]1N[C@@H]12` [Mitomycin C], the stability in urine result in data set [1] is recorded as “inactivated by acid urine”. Further, the “recurrence with optimized schedule” value in data set [2] is recorded as “nearly cut in half”.
For `CO[C@H]1C[C@@H]2CC[C@@H](C)[C@@](O)(O2)C(=O)C(=O)N2CCCC[C@H]2C(=O)O[C@H]([C@H](C)C[C@@H]2CC[C@@H](O)[C@H](OC)C2)CC(=O)[C@H](C)/C=C(\C)[C@@H](O)[C@@H](OC)C(=O)[C@H](C)C[C@H](C)/C=C/C=C/C=C/1C` [sirolimus], the “amount of drug detected in the arterial tissue” value in data set [3] (1 day after implant) was around 6 µg; in data set [3] (3 days after implant), around 16 µg; in data set [3] (7 days after implant), around 30 µg; in data set [3] (14 days after implant) it was around 30 µg; in data set [3] (28 days after implant), around 13 µg. Besides, the “peak tissue level as fraction of the total drug loaded on the stent” value in data set [3] (14 days after implant) is recorded as “approximately ⅙”.
As for `C[C@]12CC[C@@H]3c4ccc(O)cc4CC[C@H]3[C@@H]1CC[C@@H]2O` [estradiol], the “circulating plasma concentration maintained” value in data set [4] is listed as 300 pmol/L.
